Laboratory results reported in US20070072897A1, “Phenylaminopropanol derivatives and methods of their use” (Wyeth, priority 2005, published 2007).
Counter-ions that a name gives are not always drawn.

How the values were obtained:
human hNET = molecular target: T1, human hNET (Homo sapiens, UniProt P23975); test: Norepinephrine (NE) uptake assay in MDCK-Net6 cells; format: cell-based; settings: [3H]NE uptake; for EC50: MDCK-Net6 cells stably transfected with hNET; for inhibition at 1 µM: MDCK-Net6 cells, read-out: hNET Percentage inhibition at 1 μM
T1 construct: expressed in transfected cells; host or cells: MDCK (MDCK-Net6)
T1 sequence (P23975 whole entry): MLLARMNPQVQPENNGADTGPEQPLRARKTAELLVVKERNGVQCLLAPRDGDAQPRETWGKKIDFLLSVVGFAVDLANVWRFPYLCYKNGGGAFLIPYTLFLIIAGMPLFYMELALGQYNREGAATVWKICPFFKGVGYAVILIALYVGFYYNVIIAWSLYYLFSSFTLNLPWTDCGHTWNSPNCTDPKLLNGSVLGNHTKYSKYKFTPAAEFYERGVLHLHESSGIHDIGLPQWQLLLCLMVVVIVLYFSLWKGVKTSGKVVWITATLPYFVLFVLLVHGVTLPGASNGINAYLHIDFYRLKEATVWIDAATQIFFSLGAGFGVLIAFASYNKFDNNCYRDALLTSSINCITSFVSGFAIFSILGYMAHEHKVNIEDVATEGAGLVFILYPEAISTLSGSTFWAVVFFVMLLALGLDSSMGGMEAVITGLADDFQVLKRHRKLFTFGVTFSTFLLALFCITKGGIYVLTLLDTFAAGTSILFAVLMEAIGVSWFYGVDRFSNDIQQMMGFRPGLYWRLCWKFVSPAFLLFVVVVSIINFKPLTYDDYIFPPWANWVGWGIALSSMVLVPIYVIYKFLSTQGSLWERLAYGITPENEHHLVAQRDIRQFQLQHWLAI
Description: Cells were plated at 300,000/T75 flask and cells were split twice weekly. […] Cells were plated at 250,000 cells/T75 flask and split twice weekly.
Norepinephrine (NE) Uptake Assay
On day 1, cells were plated at 3,000 cells/well in growth medium and maintained in a cell incubator (37° C., 5% CO2). On day 2, growth medium was replaced with 200 μl of assay buffer (25 mM HEPES; 120 mM NaCl; 5 mM KCl; 2.5 mM CaCl2; 1.2 mM MgSO4; 2 mg/ml glucose (pH 7.4, 37° C.)) containing 0.2 mg/ml ascorbic acid and 10 μM pargyline. Plates containing cells with 200 μl of assay buffer were equilibrated for 10 minutes at 37° C. prior to addition of compounds. A stock solution of desipramine was prepared in DMSO (10 mM) and delivered to triplicate wells containing cells for a final test concentration of 1 μM. Data from these wells were used to define non-specific NE uptake (minimum NE uptake). Test compounds were prepared in DMSO (10 mM) and diluted in assay buffer according to test range (1 to 10,000 nM). Twenty-five microliters of assay buffer (maximum NE uptake) or test compound were added directly to triplicate wells containing cells in 200 μl of assay buffer. The cells in assay buffer with test compounds were incubated for 20 minutes at 37° C. […] The reaction was terminated by decanting the supernatant from the plate. The plates containing cells were washed twice with 200 μl assay buffer (37° C.) to remove free radioligand. The plates were then inverted, left to dry for 2 minutes, then reinverted and air-dried for an additional 10 minutes. […] After cell lysis, 75 μl of scintillation cocktail was added to each well and the plates were sealed with film tape. The plates were returned to the shake table and vigorously shaken for a minimum of 10 minutes to ensure adequate partitioning of organic and aqueous solutions. The plates were counted in a Wallac Microbeta counter (PerkinElmer) to collect the raw cpm data.
For each experiment, a data stream of cpm values collected from the Wallac Microbeta counter was downloaded to a Microsoft Excel statistical application program. Calculations of EC50 values were made using the transformed-both-sides logistic dose response program written by Wyeth Biometrics Department.

human 5-HT2A receptor = molecular target: T2, human 5-HT2A receptor (Homo sapiens, UniProt P28223); test: 5-HT2A FLIPR assay (calcium response to DOI) in CHO cells; format: cell-based; settings: for IC50: antagonist inhibition of 3 nM DOI stimulation, CHO cells, FLIPR; for inhibition at 1 µM: CHO, read-out: 5-HT2A Percentage inhibition at 1 μM
T2 construct: expressed in transfected cells; host or cells: CHO
T2 sequence (P28223 whole entry): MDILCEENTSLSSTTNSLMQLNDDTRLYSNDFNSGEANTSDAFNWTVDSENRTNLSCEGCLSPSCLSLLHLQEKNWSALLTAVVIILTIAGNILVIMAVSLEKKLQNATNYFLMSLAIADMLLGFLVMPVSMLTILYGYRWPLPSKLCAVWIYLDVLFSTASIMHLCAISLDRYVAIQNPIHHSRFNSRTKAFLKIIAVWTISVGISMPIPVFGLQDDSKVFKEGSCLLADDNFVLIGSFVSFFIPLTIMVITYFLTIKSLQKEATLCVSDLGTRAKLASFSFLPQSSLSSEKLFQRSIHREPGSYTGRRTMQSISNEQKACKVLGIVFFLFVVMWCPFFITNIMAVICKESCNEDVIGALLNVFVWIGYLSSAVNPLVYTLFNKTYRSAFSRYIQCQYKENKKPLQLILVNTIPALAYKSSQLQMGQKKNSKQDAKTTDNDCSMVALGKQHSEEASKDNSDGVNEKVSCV
Description: Cells are washed with PBS without Ca^2+ and 3 mL Trypsin is added to dissociate cells. After 3 minute incubation, 7 mL Trypsin Neutralizing Solution is added. Cells are then aspirated from flask and mixed in a 50 mL conical tube. 10 μL sample is used to count cells on a hemacytometer. […] Two 96-well drug plates are prepared for each cell plate. Plate 1 will contain compounds to be tested and plate 2 will contain the agonist DOI (3 nM) to activate a calcium response. Specific details of compound preparation are listed below. […] Outside wells are not used due to an edge effect seen in these cells. The reference compounds DOI and 5-HT are used as standard 5HT agonists. […] Standards for plate one are Vehicle, 1 μM DOI, and 3 nM MDL. […] On the day of the assay, test compound solutions of appropriate concentrations are diluted in assay buffer as described for single concentration testing. This procedure is followed to ensure that the solvent concentration is consistent across dilutions. The typical concentration testing range of compounds is 10^−10—10^−5 M in half log or full log increments. A 10 μM DOI stock is diluted to 60 nM and added to the respective wells. The pipeting station of the FLIPR will make an additional 20-fold dilution for a final concentration of 3 nM. Standards for this plate include Vehicle and 3 nM DOI. Contents of dye vial (Molecular Devices #R8090) are dissolved in 100 mL of 1×HBSS supplemented with 20 mM HEPES. Aliquots can be frozen at −20° C. for up to one week for future use. On the day of assay, dye is thawed and diluted to half concentration. […] Cells are allowed to adhere for 24 hours in 96-well plates. […] Cell, compound and DOI plates are loaded into the FLIPR machine. The baseline fluorescence level is read once every second for 1 minute. Compound (10 μL) is transferred from the compound plate to the cells and the fluorescence level recorded every 6 seconds for 2 minutes to determine any agonist activity. Baseline fluorescence is recorded again every second for 10 seconds. For antagonist determination, 10 μL of 3 nM DOI is transferred from the DOI plate to the cells and the fluorescence level recorded every 6 seconds for 5 minutes. The pipetting unit of the FLIPR machine completes all transfers. […] The data are log transformed prior to analysis.

EC50 (human hNET) [nM]	SMILES	other results
873	CNC[C@@H](O)[C@H](c1ccccc1)n1ccc2cc(OC(C)c3ccccc3)ccc21 (mixture of isomers) [Example 17, (1S,2R)-3-(methylamino)-1-phenyl-1-[5-(1RS)-(1-phenylethoxy)-1H-indol-1-yl]propan-2-ol hydrochloride]	IC50 (human 5-HT2A receptor): 2640 nM
18	CNC[C@@H](O)[C@H](c1ccccc1)n1ccc2cc(OCc3ccccc3)ccc21 [Example 1, (1S,2R)-1-[5-(benzyloxy)-1H-indol-1-yl]-3-(methylamino)-1-phenylpropan-2-ol hydrochloride]	IC50 (human 5-HT2A receptor): 234 nM
–	CNC[C@@H](O)[C@H](c1ccccc1)n1ccc2ccc(OCc3ccccc3)cc21 [Example 3, (1S,2R)-1-[6-(benzyloxy)-1H-indol-1-yl]-3-(methylamino)-1-phenylpropan-2-ol hydrochloride]	inhibition at 1 µM (human hNET): 2%; inhibition at 1 µM (human 5-HT2A receptor): 39%
–	CNC[C@@H](O)[C@H](c1ccccc1)n1ccc2cccc(OCc3ccccc3)c21 [Example 4, (1S,2R)-1-[7-(benzyloxy)-1H-indol-1-yl]-3-(methylamino)-1-phenylpropan-2-ol hydrochloride]	inhibition at 1 µM (human hNET): 20%; IC50 (human 5-HT2A receptor): 1470 nM
196	CNC[C@@H](O)[C@H](c1ccccc1)n1ccc2cc(OCc3ccccc3OC)ccc21 [Example 5, (1S,2R)-1-{5-[(2-methoxybenzyl)oxy]-1H-indol-1-yl}-3-(methylamino)-1-phenylpropan-2-ol hydrochloride]	IC50 (human 5-HT2A receptor): 678 nM
17	CNC[C@@H](O)[C@H](c1ccccc1)n1ccc2cc(OCc3cccc(OC)c3)ccc21 [Example 6, (1S,2R)-1-{5-[(3-methoxybenzyl)oxy]-1H-indol-1-yl}-3-(methylamino)-1-phenylpropan-2-ol hydrochloride]	IC50 (human 5-HT2A receptor): 888 nM
62	CNC[C@@H](O)[C@H](c1cc(F)cc(Cl)c1)n1ccc2ccccc21 [Example 70, (1S,2R)-1-(3-chloro-5-fluorophenyl)-1-(1H-indol-1-yl)-3-(methylamino)propan-2-ol hydrochloride]	–
9	CNC[C@@H](O)[C@H](c1ccccc1)n1ccc2cc(OCc3ccccn3)ccc21 [Example 92, (1S,2R)-3-(methylamino)-1-phenyl-1-[5-(pyridin-2-ylmethoxy)-1H-indol-1-yl]propan-2-ol hydrochloride]	–
6	CNC[C@@H](O)[C@H](c1cccc(F)c1)N1C(=O)C2(CCCCC2)c2cccc(F)c21 [Example 110, 7′-fluoro-1′-[(1S,2R)-1-(3-fluorophenyl)-2-hydroxy-3-(methylamino)propyl]spiro[cyclohexane-1,3′-indol]-2′(1′H)-one hydrochloride]	–
186	CNC[C@@H](O)[C@H](c1cccc(Cl)c1)N1C(=O)C2(CCCCC2)c2ccc(F)cc21 [Example 111, 1′-[(1S,2R)-1-(3-chlorophenyl)-2-hydroxy-3-(methylamino)propyl]-6′-fluorospiro[cyclohexane-1,3′-indol]-2′(1′H)-one hydrochloride]	–
2	CNC[C@@H](O)[C@H](c1cc(F)cc(Cl)c1)N1C(=O)C(C)(C)c2cccc(F)c21 [Example 112, 1-[(1S,2R)-1-(3-chloro-5-fluorophenyl)-2-hydroxy-3-(methylamino)propyl]-7-fluoro-3,3-dimethyl-1,3-dihydro-2H-indol-2-one hydrochloride]	–
33	CNC[C@@H](O)[C@H](c1cc(F)cc(Cl)c1)N1CCc2ccccc21 [Example 113, (1S,2R)-1-(3-chloro-5-fluorophenyl)-1-(2,3-dihydro-1H-indol-1-yl)-3-(methylamino)propan-2-ol hydrochloride]	–
166	CNC[C@@H](O)[C@H](c1cc(F)cc(Cl)c1)N1CC(C)(C)c2cccc(F)c21 [Example 114, (1S,2R)-1-(3-chloro-5-fluorophenyl)-1-(7-fluoro-3,3-dimethyl-2,3-dihydro-1H-indol-1-yl)-3-(methylamino)propan-2-ol hydrochloride]	–
133	CNC[C@@H](O)[C@H](c1cc(F)cc(Cl)c1)N1CC(C)(C)c2ccccc21 [Example 115, (1S,2R)-1-(3-chloro-5-fluorophenyl)-1-(3,3-dimethyl-2,3-dihydro-1H-indol-1-yl)-3-(methylamino)propan-2-ol hydrochloride]	–
10	CNC[C@@H](O)[C@H](c1cccc(F)c1)N1C(=O)C2(CCC2)c2cccc(F)c21 [Example 116, 7′-fluoro-1′-[(1S,2R)-1-(3-fluorophenyl)-2-hydroxy-3-(methylamino)propyl]spiro[cyclobutane-1,3′-indol]-2′(1′H)-one hydrochloride]	–
2	CNC[C@@H](O)[C@H](c1cccc(F)c1)N1C(=O)C2(CCCC2)c2cccc(F)c21 [Example 117, 7′-fluoro-1′-[(1S,2R)-1-(3-fluorophenyl)-2-hydroxy-3-(methylamino)propyl]spiro[cyclopentane-1,3′-indol]-2′(1′H)-one hydrochloride]	–
40	CNC[C@@H](O)[C@H](c1cccc(F)c1)N1C(=O)C(C)(C)c2ccc(F)cc21 [Example 118, 6-fluoro-1-[(1S,2R)-1-(3-fluorophenyl)-2-hydroxy-3-(methylamino)propyl]-3,3-dimethyl-1,3-dihydro-2H-indol-2-one hydrochloride]	–
39	CNC[C@@H](O)[C@H](c1ccccc1)N1CCc2cccc(F)c21 [Example 119, (1S,2R)-1-(7-Fluoro-2,3-dihydro-1H-indol-1-yl)-3-(methylamino)-1-phenylpropan-2-ol hydrochloride]	–
92	CNC[C@@H](O)[C@H](c1cccc(F)c1)n1c(=O)n(-c2ccccc2)c2cccc(F)c21 [Example 120, 4-fluoro-3-[(1S,2R)-1-(3-fluorophenyl)-2-hydroxy-3-(methylamino)propyl]-1-phenyl-1,3-dihydro-2H-benzimidazol-2-one hydrochloride]	–
189	CNC[C@@H](O)[C@H](c1cccc(F)c1)n1c(=O)n(-c2cccc(F)c2)c2cccc(F)c21 [Example 121, 4-fluoro-1-(3-fluorophenyl)-3-[(1S,2R)-1-(3-fluorophenyl)-2-hydroxy-3-(methylamino)propyl]-1,3-dihydro-2H-benzimidazol-2-one hydrochloride]	–
207	CC1(C)C(=O)N([C@@H](c2cc(F)cc(F)c2)[C@H](O)CN)c2c(F)cccc21 [Example 122, 1-[(1S,2R)-3-amino-1-(3,5-difluorophenyl)-2-hydroxypropyl]-7-fluoro-3,3-dimethyl-1,3-dihydro-2H-indol-2-one]	–

SMILES	EC50 (human hNET) [nM]	other results
CNC[C@@H](O)[C@H](c1ccccc1)n1ccc2c(OCc3ccccc3)cccc21 [Example 2, (1S,2R)-1-[4-(benzyloxy)-1H-indol-1-yl]-3-(methylamino)-1-phenylpropan-2-ol hydrochloride]	310	inhibition at 1 µM (human 5-HT2A receptor): 29%
